{"source": "patent US20220296541A1", "about": "“N-PALMITOYL-ETHANOLAMIDE FOR USE IN THE PREVENTION OF COLORECTAL CARCINOMA” (priority 2021, published 2022)", "key": {"[1]": {"system": "healthy human colon epithelial cells HCEC", "assay": "BrdU proliferation ELISA, healthy colon epithelial cells HCEC", "type": "cell-based", "conditions": "24 h (FIG. 2C)", "procedure": "(§1) For the in vitro experiments, immortalized human colon cancer (HCT116) and human colorectal adenocarcinoma cell lines (Caco-2) and immortalized healthy human colon epithelial cells (HCEC) were cultured in DMEM growth medium (Sigma Aldrich) supplemented with 10% serum bovine fetal (FBS, Sigma Aldrich) and kept at 37° C. in an incubator with a 5% CO2 atmosphere.\n(§2) To assess viability, the cells are stained with Trypan blue while cell proliferation, in the presence or absence of ultra-micronized PEA (1-30 μM), was determined using the BrdU proliferation ELISA kit (Roche, Milan, Italy)."}, "Caco-2 cells": {"system": "Caco-2 cells", "assay": "BrdU proliferation ELISA, Caco-2 cells", "type": "cell-based, human", "conditions": "30 μM, 24 h (FIG. 2B)", "procedure": "as §1, §2"}, "[2]": {"system": "AOM-induced ACF, polyps and tumors", "assay": "AOM mouse model of colon cancer", "type": "in vivo, male CD1 mice", "conditions": "10 mg/kg per os three times a week for 13 weeks, starting the week before first AOM", "quoted_text": "The in vivo study was conducted on six-week-old (25-30 g) male CD1 mice fed ad libitum and housed in cages with a controlled sleep/wake cycle. Before the start of the experimentation, the animals were subjected to an acclimatization period of 1 week considering all the experimental procedures and protocols, compliant with the principles of the care of laboratory animals approved by the Italian Ministry of Health and respecting the ARRIVE guidelines [Curtis M J et al. Experimental design and analysis and their reporting II: updated and simplified guidance for authors and peer reviewers. […] The animals were chemically treated with AOM (azoxymethane, 40 mg/kg in total) [Neufert C et al. An inducible mouse model of colon carcinogenesis for the analysis of sporadic and inflammation-driven tumor progression. […] A single dose of AOM was injected intraperitoneally at a concentration of 10 mg/kg at the beginning of the first, second, third and fourth weeks of the experiment [Pagano E et al. Pharmacological inhibition of MAGL attenuates experimental colon carcinogenesis, Pharmacol Res 2017; 119: 227-236]. […] The animals were euthanized 12 weeks after the first AOM injection and the colorectal area was collected. […] The detection and quantification of ACF, polyps and colorectal tumors was performed following the protocol of Pagano E et al. Pharmacological inhibition of MAGL attenuates experimental colon carcinogenesis, Pharmacol Res 2017; 119: 227-236."}, "HCT116 cells [3]": {"system": "HCT116 cells", "assay": "Cell cycle analysis by flow cytometry (BrdU/7-AAD) of HCT116 cells", "type": "cell-based, human", "conditions": "30 μM for 24 h (FIG. 3A)", "procedure": "as §1\nThe cell cycle analysis of HCT116 cells was performed following the protocol reported in the BD Pharmingen™ BrdU Flow Kit (BD Biosciences, USA). For the study, 1.5×10^5 cells was sown on 6-well plates and kept overnight in serum-free medium in the presence or absence of ultra-micronized PEA (30μM) for 24 h. The cells were detected with the BriCyte flow cytometer (Mindray, Italy) according to the BrdU (bromodeoxyuridine) and 7-AAD (7-aminoactinomycin D) content thereof. The data obtained were analyzed with FlowJo v10 software (tree Star, USA) to understand the distribution of HCT116 in the different cell cycle phases."}, "[4]": {"system": "cyclic-dependent kinase 1 (CDK1)", "assay": "Gene expression of CDK1 by Real-Time PCR in HCT116 cells", "type": "cell-based, human", "conditions": "30 μM for 24 h (FIG. 3C)", "procedure": "as §1\n(§3) The expression of the CDK1 and CYCLIN B1 genes was evaluated by virtue of the quantitative Real-Time PCR method using specific primers."}, "cyclin B1": {"system": "cyclin B1", "assay": "Gene expression of cyclin B1 by Real-Time PCR in HCT116 cells", "type": "cell-based, human", "conditions": "30 μM for 24 h (FIG. 3B)", "procedure": "as §1, §3"}, "HCT116 cells [5]": {"system": "HCT116 cells", "assay": "BrdU proliferation ELISA, HCT116 cells", "type": "cell-based, human", "conditions": "1-30 μM, 24 hours of exposure (FIG. 2A)", "procedure": "as §1, §2"}}, "data": [{"smiles": "CCCCCCCCCCCCCCCC(=O)NCCO", "note": "[ultra-micronized PEA, palmitoylethanolamide]", "values": [{"measurement": "proliferation rate of the healthy epithelial cell line HCEC", "setting": "[1]", "result": "did not affect the proliferation rate"}, {"measurement": "proliferation of non-metastatic Caco-2 cells", "setting": "Caco-2 cells", "result": "significantly reducing the proliferation"}, {"measurement": "number of pre-neoplastic ACF lesions", "setting": "[2]; vs AOM alone (FIG. 4A)", "result": "significantly reduces"}, {"measurement": "number of polyps", "setting": "[2]; vs AOM alone (FIG. 4B)", "result": "strong tendency to also reduce"}, {"measurement": "total number of tumors", "setting": "[2]; vs AOM alone (FIG. 4C)", "result": "significantly reduces"}, {"measurement": "cell cycle arrest in the G2/M phase", "setting": "HCT116 cells [3]", "result": "blocking neoplastic cells in the G2/M phase"}, {"measurement": "percentage of cells in the S phase", "setting": "HCT116 cells [3]", "result": "significant reduction"}, {"measurement": "expression of CDK1", "setting": "[4]", "result": "increased expression"}, {"measurement": "expression of cyclin B1", "setting": "cyclin B1", "result": "increased expression"}, {"measurement": "proliferation rate of HCT116 cells", "setting": "HCT116 cells [5]", "result": "reduces the proliferation rate"}]}]}
